# In ChEMBL document CHEMBL3627627, “1,2,3-Triazole-based analogue of benznidazole displays remarkable activity against Trypanosoma cruzi” (Bioorg Med Chem, 2015):
# Active and inactive are the calls of the source. No cut-off for these calls is given here.
# What was measured:
# Trypanosoma cruzi [1] = experiment: Antiparasitic activity against trypomastigote form of Trypanosoma cruzi Tulahuen-lacZ infected in LLC-MK2 ATCC cells assessed as parasite viability incubated for 4 days at 37 degC by chlorophenol beta-D-galactopyranose substrate based trypanocidal assay; assay type: functional, organism-based; conditions: LLC-MK2, 96 h
# [2] = Cytotoxicity against C57BL/6 mouse spleen cells assessed as growth inhibition incubated for 24 hrs at 37 degC by propidium iodide stain based flow cytometry method; assay type: cell-based; conditions: for CC50 at 24 h: C57BL/6, mouse, spleen cells, read-out: ED50; for ED50: mouse, spleen, 24 h
# Trypanosoma cruzi [3] = experiment: Potency index, ratio of IC50 of benznidazole for Trypanosoma cruzi Tulahuen to IC50 of test compound for Trypanosoma cruzi Tulahuen; assay type: functional
# [4] = Selectivity index, ratio of ED50 for C57BL/6 mouse spleen cells to IC50 for Trypanosoma cruzi Tulaheun; assay type: functional
# Trypanosoma cruzi [5] = experiment: Antiparasitic activity against trypomastigote form of Trypanosoma cruzi Y strain assessed as parasite viability at 62.5 to 500 uM incubated for 24 hrs; assay type: functional, organism-based
# Trypanosoma cruzi [6] = experiment: Antiparasitic activity against amastigote form of Trypanosoma cruzi Y strain infected in bone marrow macrophage cells assessed as amastigote viability incubated for 4 days by rapid panoptic stain based microscopy method; assay type: functional, organism-based; conditions: 96 h
# Trypanosoma cruzi [7] = experiment: Antiparasitic activity against trypomastigote form of Trypanosoma cruzi Y strain infected in Swiss mouse assessed as reduction in blood trypomastigote viability at 100 mg/kg/day, po starting on day 5 post-infection and followed for 10 consecutive days by light microscopy method; assay type: functional, organism-based
# [8] = Solubility of the compound in water; assay type: physicochemical; conditions: buffer
Structure (SMILES),IC50 (Trypanosoma cruzi [1]) [µM],CC50 at 24 h [2] [mM],ED50 [2],other results
O=C(O)CCCCc1cn(CC(=O)NCc2ccccc2)nn1,> 500,1.08,–,–
O=C(Cn1cc(-c2ccc([N+](=O)[O-])cc2)nn1)NCc1ccccc1,7,0.8,–,Ratio IC50 (Trypanosoma cruzi [3]): 5; Selectivity Index [4]: 114.3; Activity (Trypanosoma cruzi [5]): Active; IC50 (Trypanosoma cruzi [6]): 41.2 µM; Activity (Trypanosoma cruzi [7]): Active; solubility [8]: Insoluble
O=C(Cn1nncc1-c1cccc([N+](=O)[O-])c1)NCc1ccccc1,86,–,Non-toxic,Activity (Trypanosoma cruzi [5]): inactive
O=C(Cn1cc(-c2cccc(F)c2)nn1)NCc1ccccc1,> 100,–,Non-toxic,–
CC(C)(O)c1cn(CC(=O)NCc2ccccc2)nn1,> 400,1.6,–,–
NCc1cn(CC(=O)NCc2ccccc2)nn1,> 500,> 2,–,–
COc1cccc(-c2cnnn2CC(=O)NCc2ccccc2)c1,50,> 2,–,IC50 (Trypanosoma cruzi [6]): 60.4 µM
Nc1cccc(-c2cn(CC(=O)NCc3ccccc3)nn2)c1,> 100,0.8,–,Selectivity Index [4]: 4.4
CC(C)(C)OC(=O)NCc1cn(CC(=O)NCc2ccccc2)nn1,> 100,> 2,–,–
COc1ccc(-c2cn(CC(=O)NCc3ccccc3)nn2)cc1,> 100,–,Non-toxic,–
O=C(Cn1cc(C(=O)OCc2ccccc2)nn1)NCc1ccccc1,> 500,0.72,–,–
O=C(Cn1cc(-c2cccc(C(F)(F)F)c2)nn1)NCc1ccccc1,> 100,–,Non-toxic,–
O=C(Cn1cc(CCCCO)nn1)NCc1ccccc1,> 400,1.7,–,–
O=C(Cn1cc(-c2cccc([N+](=O)[O-])c2)nn1)NCc1ccccc1,> 100,> 2,–,Activity (Trypanosoma cruzi [5]): inactive
O=C(O)CCc1cn(CC(=O)NCc2ccccc2)nn1,> 500,1.42,–,–
Nc1ccc(-c2cn(CC(=O)NCc3ccccc3)nn2)cc1,> 100,1.24,–,Selectivity Index [4]: 7.7
O=C(Cn1nncc1-c1ccc([N+](=O)[O-])cc1)NCc1ccccc1,> 100,–,Non-toxic,Activity (Trypanosoma cruzi [5]): inactive
COc1cccc(-c2cn(CC(=O)NCc3ccccc3)nn2)c1,40,0.84,–,Selectivity Index [4]: 21; IC50 (Trypanosoma cruzi [6]): 61.8 µM
Cc1ccccc1-c1cn(CC(=O)NCc2ccccc2)nn1,> 100,0.94,–,Selectivity Index [4]: 3.2
O=C(Cn1cc(-c2ccccc2[N+](=O)[O-])nn1)NCc1ccccc1,> 100,–,Non-toxic,Activity (Trypanosoma cruzi [5]): inactive
O=C(Cn1ccnc1[N+](=O)[O-])NCc1ccccc1 [BENZNIDAZOLE],34,–,–,Activity (Trypanosoma cruzi [5]): Active; IC50 (Trypanosoma cruzi [6]): 16 µM
O=C(Cn1cc(CO)nn1)NCc1ccccc1,> 500,0.49,–,–
Cc1ccc(-c2cn(CC(=O)NCc3ccccc3)nn2)cc1,> 100,–,Non-toxic,–
O=C(Cn1cc(C(=O)O)nn1)NCc1ccccc1,> 100,–,Non-toxic,–
COc1cc(OC)cc(-c2cn(CC(=O)NCc3ccccc3)nn2)c1,> 100,–,Non-toxic,–
O=C(Cn1cc(-c2ccccc2C(F)(F)F)nn1)NCc1ccccc1,> 100,–,Non-toxic,–
CCC(O)Cc1cn(CC(=O)NCc2ccccc2)nn1 (stereo not drawn),> 500,0.63,–,–
O=C(Cn1nncc1CO)NCc1ccccc1,> 100,> 2,–,–
